Results taken from patent US10934326B2, “Peripheral modifications on pocket-redesigned vancomycin analogs synergistically improve antimicrobial potency and durability” (priority 2016, dated 2021).

Key:
[1] = system: vancomycin-sensitive Staphylococcus aureus (VSSA strain ATCC 25923); conditions: previously reported data; cited from earlier work
[2] = system: Enterococcus faecium (VanA VRE, ATCC BAA-2317); conditions: previously reported data; cited from earlier work
[3] = system: vancomycin-resistant Enterococcus faecalis (VanB VRE, strain ATCC 51299); conditions: previously reported data; cited from earlier work
[4] = system: VanA VRE (E. faecalis BM 4166 and E. faecium ATCC BAA-2317); assay: Cell wall permeability assay (propidium iodide uptake); format: cell-based, Enterococcus faecalis; Enterococcus faecium; conditions: 10 μM compound
[5] = system: methicillin and oxacillin-resistant Staphylococcus aureus subsp. aureus (MRSA strain ATCC 43300); conditions: previously reported data; cited from earlier work
[6] = system: VanA VRE (E. faecalis BM 4166 and E. faecium ATCC BAA-2317); assay: Cell wall biosynthesis inhibition assay (accumulation of UDPMurNAc-pp 19); format: cell-based, Enterococcus faecalis; Enterococcus faecium; conditions: 35 μg/mL, tetracycline pretreated VanA VRE, 30 minutes, 37° C.
Source text: The inhibition of bacterial cell wall synthesis was established in an assay that quantitates the accumulation of the peptidoglycan precursor UDP-N-acetyl-muramyl-depsipentapeptide (Compound 19, UDPMurNAc-pp), resulting from inhibited cell wall incorporation following antibiotic treatment. […] This procedure was reduced in scale and modified to enlist reverse-phase HPLC separation, UV detection, and calibration curve determination of the amount of isolated 19, permitting use with limited sample sizes. A larger scale isolation and full characterization of 19 provided the material needed to establish a linear calibration curve.
The bacterial suspension was heated at 100° C. for 15 minutes to release cytosolic 19. The entire supernatant was analyzed by semi-preparative reverse-phase HPLC with a single injection and the amount of 19 was quantitated with use of the calibration curve.
Cultures of vancomycin-resistant Enterococcus faecalis (VanA VRE, BM4166) and Enterococcus faecium (VanA VRE, ATCC BAA-2317) were inoculated and grown in an orbital shaker at 37° C. in 100% brain-heart infusion broth for 12 hours. The above bacterial solution was subjected to a subculture to obtain fresh mid-log phase bacterial cells (total volume of bacterial suspension=5 mL, incubation time=6 hours, OD600=0.6). […] Vancomycin analogues were added and the mixture was incubated at 37° C. for a further 30 minutes.
After the bacteria were harvested (3000 rpm, 4° C., 20 minutes), this bacterial precipitate was washed and resuspended in 5 mM glucose and 5 mM HEPES buffer (500 μL, 1:1, pH=7.2). This bacterial suspension was heated at 100° C. for 15 minutes and centrifuged (13000 rpm, 25° C., 10 minutes). […] [*****Allen et al., Antimicrob. Agents Chemother. 1996, 40(10):2356-2362]; Liu et al., J. Am. Chem. Soc. 2001, 123:9916-9917.] The amount of UDP Mur N-Ac pentapeptide (19) was quantified by use of calibration curves for E. faecalis BM4166, and for E. faecium ATCC BAA-2317 based on the area under the curve (AUC).

[7] = system: vancomycin-resistant Enterococcus faecalis (VanA VRE, BM4166); conditions: BM 4166; previously reported data; cited from earlier work
[8] = system: VSSA, MRSA, VanA and VanB VRE; conditions: cited from earlier work

## CN[C@H](CC(C)C)C(=O)N[C@H]1C(=O)N[C@@H](CC(N)=O)C(=O)N[C@H]2C(=S)N[C@@H]3C(=O)N[C@H](C(=O)N[C@H](C(=O)O)c4cc(O)cc(O)c4-c4cc3ccc4O)[C@H](O)c3ccc(c(Cl)c3)Oc3cc2cc(c3OC2OC(CO)C(O)[C@H](O)[C@@H]2O[C@H]2CC(C)(NCc3ccc(-c4ccc(Cl)cc4)cc3)[C@H](O)[C@H](C)O2)Oc2ccc(cc2Cl)[C@H]1O (some centres unmarked) [Compound 6]
[1]
  Antimicrobial Activity, MIC, sensitive S. aureus: 2 µg/mL
[2]
  Antimicrobial Activity, MIC, VanA E. faecium: 4 µg/mL
[3]
  Antimicrobial Activity, MIC, VanB E. faecalis: 2 µg/mL
[4]
  induced cell membrane permeability (propidium uptake): Neither compound significantly impacts membrane permeability
[5]
  Antimicrobial Activity, MIC, MRSA S. aureus: 2 µg/mL
[6]
  inhibition of bacterial cell wall synthesis (accumulation of 19): inhibit cell wall biosynthesis to a similar extent
[7]
  Antimicrobial Activity, MIC, VanA E. faecalis: 4 µg/mL
[8]
  MICs (range over panel): 2 to 4 µg/mL
